Key:
[1] = tested on: mouse BMDC (Bone marrow DCs); assay: Maturation of dendritic cells: surface marker expression by flow cytometry, mouse BMDC; assay type: cell-based; details: mouse BMDCs, 1 μg/ml, 37° C., 24 hrs
Protocol: (§1) Approximately 80 ml of blood from healthy human donors was collected and isolated peripheral blood mononuclear cells (PBMCs) with Ficoll-Paque™ gradient separation method. Monocytes were isolated from PBMCs using anti-CD14 microbeads (MACS system), seeded at […] in a 24-well plate with RPMI medium contained 10% FBS, IL-4 and GM-CSF and cultured to obtain human MDDCs. Bone marrow cells were isolated from male BALB/c mouse and cultured with medium contained IL-4 and GM-CSF for 6 days to obtain BMDCs. Then, at 7 days, CD11c^+ cells were isolated using anti-CD11c-coated magnetic beads.
(§2) Human MDDCs (Monocyte-derived DC cells) and mouse BMDC (Bone marrow DCs) were isolated with the method described above, treated respectively with LPS, MPL and CIA05 with 1 μg/ml of concentration and incubated at 37° C. for 24 hrs. After incubation, CD40, CD80 and CD86 were verified in mouse BMDCs surface, and HLA-DR, CD80 and CD86 were verified in human MDDCs by flow cytometry, respectively. […] Therefore, CIA05 may solve these problems.

[2] = tested on: Human MDDCs (Monocyte-derived DC cells); assay: Maturation of dendritic cells: surface marker expression by flow cytometry, human MDDCs; assay type: cell-based; details: 1 μg/ml, 37° C., 24 hrs
Protocol: as §1, §2

Substance	expression of DCs surface marker CD40, CD80 and CD86 [1]	expression of MDDCs surface marker HLA-DR, CD80 and CD86 [2]
Monophosphoryl lipid A [MPL]	expressed with similar distribution	limited in human
lipopolysaccharide [LPS]	expressed with similar distribution	–

From patent publication US9572877B2 (priority 2010, dated 2017)
